Experimental data as given in US7514421B2, “Use of an IBAT inhibitor for the treatment of constipation” (Albireo AB, priority 2003, dated 2009).

Test system: constipated dog
Assay: Buenos dog model for constipation (low fibre/high protein diet, 20 g meat/kg dog/day)
Type: in vivo
Conditions: constipated dogs
Description: As stated hereinbefore the compounds defined in the present invention are useful in the treatment of functional constipation and C-IBS. These properties may be assessed, for example, using models known in the art: • Buenos dog model for constipation, (Hepato-gasteroenterology, 1980, 27, 381-389).
Once constipation has been induced the animals can be dosed with an IBAT inhibitor to asses the ability of the IBAT inhibitor to relieve the constipation.
The following data was generated using the Buenos dog model (method described in the publication above) with the modification that the dogs were given 20 g meat/kg dog/day. The result is calculated as mean value of the increase of faeces during the three treatment days subtracted with the entry value (day before start of treatment with the IBAT inhibitor). The dogs were judge as constipation if there faeces amount per day was below 30 gram.

CCCCC1(CCCC)CN(c2ccccc2)c2cc(SC)c(OCC(=O)N[C@@H](C(=O)N[C@H](C(=O)O)[C@@H](C)O)c3ccc(O)cc3)cc2S(=O)(=O)N1 [Compound 2, 1,1-Dioxo-3,3-dibutyl-5-phenyl-7-methylthio-8-(N-{(R)-α-[N-((S)-1-carboxy-2-(R)-hydroxypropyl)carbamoyl]-4-hydroxybenzyl}carbamoylmethoxy)-2,3,4,5-tetrahydro-1,2,5-benzothiadiazepine]
Result: mean increase of faeces during the three treatment days subtracted with the entry value (dose 1.5 μmol/kg, 2 animals): 23 ± 11 g/day | Result: mean increase of faeces during the three treatment days subtracted with the entry value (dose 1.5 μmol/kg, 2 animals, listed as compound 2): 23 ± 11 g/day

CCCCC1(CCCC)CN(c2ccccc2)c2cc(SC)c(OCC(=O)N[C@@H](C(=O)N[C@H](C(=O)O)C(C)C)c3ccc(O)cc3)cc2S(=O)(=O)N1 [Compound 3, 1,1-Dioxo-3,3-dibutyl-5-phenyl-7-methylthio-8-(N-{(R)-α-[N-((S)-1-carboxy-2-methylpropyl)carbamoyl]-4-hydroxybenzyl}carbamoylmethoxy)-2,3,4,5-tetrahydro-1,2,5-benzothiadiazepine]
Result: mean increase of faeces during the three treatment days subtracted with the entry value (dose 1.5 μmol/kg, 2 animals): 39 ± 2 g/day | Result: mean increase of faeces during the three treatment days subtracted with the entry value (dose 1.5 μmol/kg, 2 animals, listed as compound 3): 39 ± 2 g/day

CCCCC1(CCCC)CN(c2ccccc2)c2cc(SC)c(OCC(=O)N[C@@H](C(=O)NCCS(=O)(=O)O)c3ccc(O)cc3)cc2S(=O)(=O)N1 [Compound 1, 1,1-Dioxo-3,3-dibutyl-5-phenyl-7-methylthio-8-(N-{(R)-α-[N-(2-sulphoethyl)carbamoyl]-4-hydroxybenzyl}carbamoylmethoxy)-2,3,4,5-tetrahydro-1,2,5-benzothiadiazepine]
Result: mean increase of faeces during the three treatment days subtracted with the entry value (dose 5 μmol/kg, 3 animals): 38 ± 7 g/day | Result: mean increase of faeces during the three treatment days subtracted with the entry value (dose 5 μmol/kg, 3 animals, listed as compound 1): 38 ± 7 g/day
